For orientation: IC50 means the concentration needed to halve the response being measured.

Our source for the IC50 values is US20120065173A1 (priority 2006, published 2012).

Structures are written as SMILES.

The assay deals with T1, recombinant human GR (Homo sapiens, UniProt P04150).
T1 construct: purchased Panvera/Invitrogen P2812 (kit P2893)
T1 sequence (P04150 1-777): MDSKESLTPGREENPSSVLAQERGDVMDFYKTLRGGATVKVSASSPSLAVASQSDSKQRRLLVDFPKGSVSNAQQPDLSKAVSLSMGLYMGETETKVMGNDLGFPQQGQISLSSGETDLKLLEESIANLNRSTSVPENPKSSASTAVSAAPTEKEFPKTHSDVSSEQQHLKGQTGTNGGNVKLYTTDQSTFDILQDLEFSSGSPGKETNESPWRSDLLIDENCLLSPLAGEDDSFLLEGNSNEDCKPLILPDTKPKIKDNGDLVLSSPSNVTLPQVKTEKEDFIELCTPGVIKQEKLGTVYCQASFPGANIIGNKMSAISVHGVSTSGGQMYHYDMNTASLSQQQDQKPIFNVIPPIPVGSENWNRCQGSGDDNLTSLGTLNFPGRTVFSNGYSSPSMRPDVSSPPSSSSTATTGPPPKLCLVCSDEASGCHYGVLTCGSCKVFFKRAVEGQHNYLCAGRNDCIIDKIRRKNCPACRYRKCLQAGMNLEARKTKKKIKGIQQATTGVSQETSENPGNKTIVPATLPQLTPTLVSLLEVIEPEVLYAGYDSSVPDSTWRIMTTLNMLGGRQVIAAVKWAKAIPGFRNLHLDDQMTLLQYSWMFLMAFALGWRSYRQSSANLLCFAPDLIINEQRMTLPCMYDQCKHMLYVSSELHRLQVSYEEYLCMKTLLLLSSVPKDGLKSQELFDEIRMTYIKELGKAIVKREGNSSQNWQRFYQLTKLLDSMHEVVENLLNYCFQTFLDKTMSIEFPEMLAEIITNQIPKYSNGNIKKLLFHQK
The assay can be described thus: Human Glucocorticoid Receptor (GR) Assay, fluorescence polarization (GRhuFL_FP_v2). In kind it is binding. As to conditions: GS Red tracer, 2 hours at room temperature, 100% control 10 μM Dexamethasone. The protocol: Human Glucocorticoid Receptor (GR) Assay
The assay is based on a commercial kit from Panvera/Invitrogen (Part number P2893). The assay technology is fluorescence polarization. […] The GR and Stabilizing Peptide reagents are stored at −70° C. while the GS Red is stored at −20° C. Also included in the kit are 1M DTT (Panvera, Part number P2325, stored at −20° C.) and GR Screening buffer 10× (Panvera, Part number P2814, stored at −70° C. initially but once thawed stored at room temperature). Avoid repeated freeze/thaws for all reagents. The GR Screening buffer 10× comprises 100 mM potassium phosphate, 200 mM sodium molybdate, 1 mM EDTA and 20% DMSO.
0% control was 100% DMSO and 100% control was 10 μM Dexamethasone. Background solution (8 μL; assay buffer 10×, Stabilizing Peptide, DTT and ice cold MQ water) was added to the background wells. GS Red solution (7 μL; assay buffer 10×, Stabilizing Peptide, DTT, GS Red and ice cold water) was added to all wells except background wells. GR solution (7 μL; assay buffer 10×, Stabilizing Peptide, DTT, GR and ice cold water) was added to all wells. The plate was sealed and incubated in a dark at room temperature for 2 hours.
In the case of `C[C@H](NS(=O)(=O)CCN1C(=O)c2ccccc2C1=O)[C@H](Oc1ccc2c(cnn2-c2ccc(F)cc2)c1)c1ccccc1` [Example 10, 2-(1,3-Dioxoisoindol-2-yl)-N-[(1R,2S)-1-[1-(4-fluorophenyl)indazol-5-yl]oxy-1-phenyl-propan-2-yl]ethanesulfonamide], the IC50 was found to be 6.5 nM.

Regarding `C[C@H](NS(C)(=O)=O)[C@H](Sc1ccc2c(cnn2-c2ccc(F)cc2)c1)c1ccccc1` [Example 38, N-((1R,2S)-1-(1-(4-fluorophenyl)-1H-indazol-5-ylthio)-1-phenylpropan-2-yl)methanesulfonamide], the IC50 was found to be 4.8 nM. In the case of `O=S(=O)(NC[C@H](Sc1ccc2c(cnn2-c2ccc(F)cc2)c1)c1ccccc1)C1CC1` [Example 37, (R)—N-[2-[1-(4-fluorophenyl)indazol-5-yl]sulfanyl-2-phenyl-ethyl]cyclopropanesulfonamide] it was 17 nM. Then `COc1ccc(OCCCS(=O)(=O)N[C@@H](C)[C@H](Oc2ccc3c(cnn3-c3ccc(F)cc3)c2)c2ccccc2)cc1` [Example 11, N-[(1R,2S)-1-[1-(4-fluorophenyl)indazol-5-yl]oxy-1-phenyl-propan-2-yl]-3-(4-methoxyphenoxy)propane-1-sulfonamide], with 6.9 nM.

Turning to `Cc1ccc(-n2ncc3cc(O[C@H](c4ccccc4)C(C)(C)NS(=O)(=O)C4CC4)ccc32)cc1` [Example 26, (R)—N-(2-methyl-1-phenyl-1-(1-p-tolyl-1H-indazol-5-yloxy)propan-2-yl)cyclopropanesulfonamide], the IC50 worked out at 77 nM. On to `C[C@H](NS(=O)(=O)C1CC1)[C@H](Oc1ccc2c(cnn2-c2ccc(F)cc2)c1)c1ccc([S+](C)[O-])cc1` (stereo partly drawn) [Example 31, N-[(1R,2S)-1-[1-(4-fluorophenyl)indazol-5-yl]oxy-1-(4-methylsulfinylphenyl)propan-2-yl]cyclopropanesulfonamide], for which the IC50 amounted to 6.4 nM. On to `C[C@H](NS(=O)(=O)CC1CCCC1)[C@H](Oc1ccc2c(cnn2-c2ccc(F)cc2)c1)c1ccccc1` [Example 20, 1-Cyclopentyl-N-[(1R,2S)-1-[1-(4-fluorophenyl)indazol-5-yl]oxy-1-phenyl-propan-2-yl]methanesulfonamide], for which the IC50 is 8.7 nM. Then `COC(=O)CCS(=O)(=O)N[C@@H](C)[C@H](Oc1ccc2c(cnn2-c2ccc(F)cc2)c1)c1ccccc1` [Example 19, Methyl 3-[[(1R,2S)-1-[1-(4-fluorophenyl)indazol-5-yl]oxy-1-phenyl-propan-2-yl]sulfamoyl]propanoate], with 5.1 nM; and `CC(NS(=O)(=O)C1CC1)C(Oc1cc2cnn(-c3ccc(F)cc3)c2cc1Cl)c1ccc(F)cc1` (racemic) [Example 36, N-[(1RS,2RS)-1-[6-chloro-1-(4-fluorophenyl)indazol-5-yl]oxy-1-(4-fluorophenyl)propan-2-yl]cyclopropanesulfonamide], with 4.3 nM; and `CCS(=O)(=O)N[C@@H](C)[C@H](Oc1ccc2c(cnn2-c2ccc(F)cc2)c1)c1ccccc1` [Example 12, N-[(1R,2S)-1-[1-(4-fluorophenyl)indazol-5-yl]oxy-1-phenyl-propan-2-yl]ethanesulfonamide], with 2.8 nM. In the case of `C[C@H](NS(=O)(=O)Cc1ccccc1)[C@H](Oc1ccc2c(cnn2-c2ccc(F)cc2)c1)c1ccccc1` [Example 6, N-[(1R,2S)-1-[1-(4-fluorophenyl)indazol-5-yl]oxy-1-phenyl-propan-2-yl]-1-phenyl-methanesulfonamide] it was 5.9 nM; in that of `CC(C)n1ncc2cc(O[C@H](c3ccccc3)[C@H](C)NS(=O)(=O)C3CC3)ccc21` [Example 33, N-[(1R,2S)-1-phenyl-1-(1-propan-2-ylindazol-5-yl)oxy-propan-2-yl]cyclopropanesulfonamide], 170 nM; in that of `CCCCS(=O)(=O)N[C@@H](C)[C@H](Oc1ccc2c(cnn2-c2ccc(F)cc2)c1)c1ccccc1` [Example 15], 5.4 nM. Then `C[C@H](NS(=O)(=O)N(C)C)[C@H](Oc1ccc2c(cnn2-c2ccc(F)cc2)c1)c1ccccc1` [Example 8], with 4.6 nM; and `C[C@H](NS(=O)(=O)C1CC1)[C@H](Oc1cc2cnn(-c3ccc(F)cc3)c2cc1Cl)c1ccc(F)cc1` (racemic) [Example 35, N-[(1RS,2SR)-1-[6-chloro-1-(4-fluorophenyl)indazol-5-yl]oxy-1-(4-fluorophenyl)propan-2-yl]cyclopropanesulfonamide], with 6.2 nM. On to `C[C@H](NS(=O)(=O)C1CC1)[C@H](Oc1ccc2c(cnn2-c2ccc(F)cc2)c1)c1ccc2c(c1)OCCO2` [Example 43, N-((1R,2S)-1-(2,3-dihydrobenzo[b][1,4]dioxin-6-yl)-1-(1-(4-fluorophenyl)-1H-indazol-5-yloxy)propan-2-yl)cyclopropanesulfonamide], for which the IC50 stood at 2.3 nM. Then `C[C@H](NS(=O)(=O)C1CC1)[C@H](Oc1ccc2c(cnn2-c2ccc(F)cc2)c1)c1cnc2ccccc2c1` [Example 42, N-((1R,2S)-1-(1-(4-fluorophenyl)-1H-indazol-5-yloxy)-1-(quinolin-3-yl)propan-2-yl)cyclopropanesulfonamide], with 3.6 nM; and `C[C@H](NS(=O)(=O)CCC(F)(F)F)[C@H](Oc1ccc2c(cnn2-c2ccc(F)cc2)c1)c1ccccc1` [Example 18, 3,3,3-trifluoro-N-[(1R,2S)-1-[1-(4-fluorophenyl)indazol-5-yl]oxy-1-phenyl-propan-2-yl]propane-1-sulfonamide], with 4.3 nM; and `CCCCCCS(=O)(=O)N[C@@H](C)[C@H](Oc1ccc2c(cnn2-c2ccc(F)cc2)c1)c1ccccc1` [Example 24, N-[(1R,2S)-1-[1-(4-fluorophenyl)indazol-5-yl]oxy-1-phenyl-propan-2-yl]hexane-1-sulfonamide], with 7.6 nM. Then `C[C@H](NS(=O)(=O)C1CC1)[C@H](Oc1ccc2c(cnn2-c2ccc(F)nc2)c1)c1ccccc1` [Example 4, N-[(1R,2S)-1-[1-(6-fluoropyridin-3-yl)indazol-5-yl]oxy-1-phenyl-propan-2-yl]cyclopropanesulfonamide], with 4.9 nM. Then `O=S(=O)(NC[C@@H](Oc1ccc2c(cnn2-c2ccc(F)cc2)c1)c1ccccc1)C1CC1` [Example 41, N-[(2S)-2-[1-(4-fluorophenyl)indazol-5-yl]oxy-2-phenyl-ethyl]cyclopropanesulfonamide], with 250 nM; and `C[C@H](NS(=O)(=O)CC(F)(F)F)[C@H](Oc1ccc2c(cnn2-c2ccc(F)cc2)c1)c1ccccc1` [Example 22, 2,2,2-trifluoro-N-[(1R,2S)-1-[1-(4-fluorophenyl)indazol-5-yl]oxy-1-phenyl-propan-2-yl]ethanesulfonamide], with 2.7 nM; and `C[C@H](NS(C)(=O)=O)[C@@H](c1ccccc1)S(=O)(=O)c1ccc2c(cnn2-c2ccc(F)cc2)c1` [Example 39], with 280 nM.

`C[C@H](NS(=O)(=O)CC1CCCCC1)[C@H](Oc1ccc2c(cnn2-c2ccc(F)cc2)c1)c1ccccc1` [Example 23, 1-Cyclohexyl-N-[(1R,2S)-1-[1-(4-fluorophenyl)indazol-5-yl]oxy-1-phenyl-propan-2-yl]methanesulfonamide]: the IC50 came to 9.5 nM. On to `CC(C)n1ncc2cc(O[C@H](c3ccccc3)[C@H](C)NS(C)(=O)=O)ccc21` [Example 30, N-[(1R,2S)-1-phenyl-1-(1-propan-2-ylindazol-5-yl)oxy-propan-2-yl]methanesulfonamide], for which the IC50 was 330 nM. In the case of `C[C@H](NS(=O)(=O)c1cccnc1)[C@H](Oc1ccc2c(cnn2-c2ccc(F)cc2)c1)c1ccccc1` [Example 25, N-[(1R,2S)-1-[1-(4-fluorophenyl)indazol-5-yl]oxy-1-phenyl-propan-2-yl]pyridine-3-sulfonamide] it was 7 nM. `CCCC(C)S(=O)(=O)N[C@@H](C)[C@H](Oc1ccc2c(cnn2-c2ccc(F)cc2)c1)c1ccccc1` (stereo partly drawn) [Example 13, N-[(1R,2S)-1-[1-(4-fluorophenyl)indazol-5-yl]oxy-1-phenyl-propan-2-yl]pentane-2-sulfonamide]: the IC50 stood at 5 nM.
